According to patent US11207331B2, “Agents, compositions and methods for enhancing neurological function” (University of Southern California, priority 2007, dated 2021):

How the values were obtained:
Format in all cases: in vivo, mouse
[1] = system: Beta amyloid binding alcohol dehydrogenase (ABAD); test: ABAD expression (Western blot, antibody ERAB)
Description: Further studies were conducted using a dosing regime of once a week for six months administered subcutaneously. Three and six months old 3×Tg-AD and age-matched non-Tg mice were chosen for the experiments, since AD pathology (Aβ) starts development at 3-month and abundant accumulation at 6-months. Allopregnanolone was subcutaneously (s.c.) administrated with 10 mg/kg once per week for 6 months. For neurogenesis and neurosurvival study, BrdU, IdU and CIdU were intraperitoneal (i.p.) injected at the first 5 days, mid 5 days and 5 days before sacrifice during 6-month treatment. After 6 months of allopregnanolone treatment, mice, at 9- and 12-month old, were sacrificed.
Beta amyloid binding alcohol dehydrogenase (ABAD) was probed with antibody ERAB (1:500, Abcam). […] Immunofluorescent staining using goat polyclonal anti-ERAB (Santa Cruz) confirmed the results obtained by Western Blot analysis. The concentration of ABAD immunoactive cells is less in THP-treated brains than in the brains treated with the vehicle.

[2] = system: PCNA and CDK1/cdc2; test: PCNA and CDK1/cdc2 mRNA and protein in hippocampus (RT-PCR, Western blot)
Description: Protein was extracted from mouse hippocampus and separated by SDS gel as described in the literature. After transfer, PVDF membrane was plotted with monoclonal antibody for proliferating cell nuclear antigen (PCNA, 1:500, Zymed Laboratories Inc, San Francisco, Calif.) and then incubated with a horseradish peroxidase conjugated secondary antibody which is complementary to the primary antibody. Results were visualized by the ECL Plus Western Blotting Detection System (GE Healthcare, Amersham, Buckinghamshire, UK) followed by TMB development. Optical density was and analyzed by BioRad Quantity One software. The percent protein expression vs. control was normalized by loading control β-actin.
Brain samples derived from the same brains that underwent unbiased stereological analysis and GC/MC for THP detection were also analyzed by real-time RT-PCR and Western blot for expression of PCNA and CDK1 mRNA and protein.
To confirm the stereological analyses results, Western blot analyses of cell proliferation marker PCNA were carried out using samples derived from the same brains which underwent unbiased stereological analysis. PCNA, or Proliferating Cell Nuclear Antigen, is a protein that acts as a processivity factor for DNA polymerase delta subunit in eukaryotic cells and was induced in vitro by THP in cultured rat hippocampal progenitor cells.
Western blot analysis was performed to determine proliferating cell nuclear antigen (PCNA) expression levels in the hippocampus from the same animals that underwent behavior experiments.

[3] = system: phosphorylated tau; test: Phospho-tau immunoreactivity
[4] = system: hippocampus of 3×TgAD mice; test: Long-term treatment with BrdU, IdU and CldU labelling; conditions: 10 mg/kg once a week for 6 months, begun at 3 or 6 months of age
Description: In yet another study, THP (10 mg/kg once a week for 6 months) was administered to mice beginning at 3 months or 6 months of age. The cell proliferation marker, 5-bromodeoxyuridine (BrdU) was injected (100 mg/kg) one hour after initial THP treatment and once per day for the next four days to detect cell proliferation and cell survival over the six month treatment period. After 3 months treatment, the mice were injected 5 times with another nucleotide analog iododeoxyuridine (one per day). After 6 months treatment, the mice were injected with chlorodeoxyuridine (CldU) 5 times (once per day). Using specific antibodies, BrdU, IdU, and CldU incorporated cells will identify the 6 month survival, 3 month survival, and newly formed cells respectively. The mice were then sampled for biochemical, IHC, and flow cytometry assay. The results from mice with THP treatment initiated at 3 months old are shown in FIGS. 20B and 20C and initiated at 6 months old are shown in FIGS. 20D and 20E. The aim was to determine whether or not desensitization to THP was occurring.

[5] = 3×Tg-AD mice, once a week for 6 months

CC(=O)[C@H]1CC[C@H]2[C@@H]3CC[C@H]4C[C@H](O)CC[C@]4(C)[C@H]3CC[C@]12C [THP, 3α-hydroxy-5α-pregnan-20-one]
decrease in ABAD level relative to vehicle ([1]; 9-month 3×Tg mice): 30±4% | decrease in ABAD level relative to vehicle ([1]; 12-month 3×Tg mice): 20±7% | PCNA and CDK1 protein expression in hippocampi ([2]; 10 mg/kg, Western blot, 3 months): greater PCNA and CDK1 protein expression in the hippocampi of 3×TgAD relative to the non-Tg mice | PCNA expression vs vehicle 21 day after injection ([2]; 3×TgAD mice, 6, 9 or 12-month-old): no significant difference | PCNA mRNA in hippocampus ([2]; 3×TgAD mice, real-time RT-PCR, 1-20 mg/kg): dose-dependent increase in PCNA mRNA | PCNA immunoblot vs vehicle control ([2]; 3×TgAD mice, three and six month, 24 hours after 10 mg/kg): increased | PCNA expression vs vehicle ([2]; non-Tg and 3×TgAD mice, 6- and 9-months, 24 hr): did not significantly affect PCNA expression | immunoreactivity of phosphorylated tau ([3]; 10 mg/kg once a week for six months): decreases the immunoreactivity of phosphorylated tau | AT8 immunoreactivity, immunoblotting [3, 5]: did not show a significantly reduction of AT8 immunoreactivity | AT8 immunostaining [3, 5]: lower levels of immunoreactivity in THP-treated hippocampal CA1, cortex and amygdala | responsiveness of the brain (desensitization) [4]: still responsive to THP at 3 and 6 months
